Results reported in PMC9252588 (Drug Design, Development and Therapy, 2022).
Each block holds one compound with its values, some of them ahead of it.

Experiments:
[1] = tested on: rat liver microsomes (RLMs); experiment: Enzymatic kinetics of axitinib inhibition of buspirone metabolism in RLMs; format: in vitro ADME
[2] = Pharmacokinetics of buspirone and metabolites with or without axitinib in rats; format: in vivo, Sprague–Dawley rats; details: increased to % of group A
[3] = in vivo; cited from earlier work
[4] = tested on: buspirone 6′-hydroxylation (formation of 6′-OH buspirone); experiment: in vitro; details: rat, rat liver microsomes
[5] = tested on: buspirone N-dealkylation (formation of 1-PP); experiment: in vitro; details: rat, rat liver microsomes
[6] = Pharmacokinetic pre-experiment: ritonavir before buspirone in rats; format: in vivo; details: ritonavir (positive inhibitor) administered before buspirone

SMILES: CNC(=O)c1ccccc1Sc1ccc2c(/C=C/c3ccccn3)n[nH]c2c1 [axitinib]
- α value ([1]; buspirone 6′-hydroxylation): 2.139
- α value ([1]; buspirone N-dealkylation): 5.434

- AUC(0-t), group B compared with group A [2]: 530%
- Cmax, group B compared with group A [2]: 420%
- Tmax, group B compared with group A [2]: 150%
- Km at 40 min [4]: 23 µM
- Km at 40 min [5]: 26.3 µM
SMILES: O=C1CC2(CCCC2)CC(=O)N1CCCCN1CCN(c2ncccn2)CC1 [buspirone, 8-(4-(4-(2-pyrimidinyl)-1-piperizinyl)butyl)-8-azaspiro(4,5)decane-7,9-dione]
- absorbed in the alimentary canal [3]: ~100%

SMILES: CC(C)c1nc(CN(C)C(=O)N[C@H](C(=O)N[C@@H](Cc2ccccc2)C[C@H](O)[C@H](Cc2ccccc2)NC(=O)OCc2cncs2)C(C)C)cs1 [ritonavir]
- blood concentrations of buspirone [6]: extremely high blood concentrations of buspirone
- symptoms compared with the control [6]: symptoms of inhibition of respiration and near-death
